Experimental data published in US20240059689A1, “PURINE DERIVATIVES AS ANTICANCER AGENTS” (Tango Therapeutics, Inc., priority 2021, published 2024).

Assays:
[1] = molecular target: USP1-UAF1 (Homo sapiens, UniProt O94782); experiment: Ubiquitin Rhodamine assay of USP1-UAF1 activity; type: biochemical
Description: Certain compounds of the disclosure were assessed for USP1-UAF1 activity in a Ubiquitin Rhodamine assay as described in Biology Example 1.

[2] = test system: HCC1954; experiment: Viability assay, BRCA1 WT cell line HCC1954; type: cell-based; settings: Homo sapiens, HCC1954, viability, read-out: HCC1954 rel IC50
Source text: (§1) Table 1 also indicates IC50 values in a viability assay for a non-isogenic pair of BRCA1 mutant (column 5-MDA-MB-436) and BRCA1 WT (column 6—HCC1954) cell lines. These values indicate the effect of treatment with compound on cell survival.

[3] = test system: MDA-MB-436; experiment: Viability assay, BRCA1 mutant cell line MDA-MB-436; type: cell-based; settings: Homo sapiens, MDA-MB-436, viability, BRCA1 mutant MDA-MB-436; read-out: MDA-MB-436 rel IC50
Source text: as §1

[4] = test system: monoubiquitinated PCNA; experiment: AlphaLISA assay measuring monoubiquitinated PCNA in MDA-MB-436; type: cell-based; settings: Homo sapiens, MDA-MB-436, monoubiquitinated PCNA, read-out: Alpha Lisa IC50
Source text: Table 1 also indicates IC50 values for exemplary compounds in an AlphaLISA assay measuring monoubiquitinated PCNA in a BRCA1 mutant cell line (MDA-MB-436; column 7).

Sequence of USP1-UAF1 (O94782 whole entry): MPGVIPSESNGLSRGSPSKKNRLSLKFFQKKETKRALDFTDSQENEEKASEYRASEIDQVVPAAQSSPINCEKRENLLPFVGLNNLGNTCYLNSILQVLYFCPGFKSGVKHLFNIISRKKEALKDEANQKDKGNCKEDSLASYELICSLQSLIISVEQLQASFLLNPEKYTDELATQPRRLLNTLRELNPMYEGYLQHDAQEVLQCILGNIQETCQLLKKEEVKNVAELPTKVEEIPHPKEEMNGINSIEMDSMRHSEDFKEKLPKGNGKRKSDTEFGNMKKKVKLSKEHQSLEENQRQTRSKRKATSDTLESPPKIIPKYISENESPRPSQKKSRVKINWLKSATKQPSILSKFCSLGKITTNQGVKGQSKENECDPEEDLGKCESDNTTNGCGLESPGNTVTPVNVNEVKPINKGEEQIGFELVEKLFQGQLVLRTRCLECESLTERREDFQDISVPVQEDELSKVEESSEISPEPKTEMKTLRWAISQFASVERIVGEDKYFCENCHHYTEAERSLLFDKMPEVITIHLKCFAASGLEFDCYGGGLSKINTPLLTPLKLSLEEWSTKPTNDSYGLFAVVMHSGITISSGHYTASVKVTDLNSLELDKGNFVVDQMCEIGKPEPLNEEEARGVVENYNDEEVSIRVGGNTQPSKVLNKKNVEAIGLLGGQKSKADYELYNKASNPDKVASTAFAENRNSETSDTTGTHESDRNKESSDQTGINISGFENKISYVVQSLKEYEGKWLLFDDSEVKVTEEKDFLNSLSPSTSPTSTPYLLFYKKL
Sequence of USP1-UAF1 (Q8TAF3 whole entry partner): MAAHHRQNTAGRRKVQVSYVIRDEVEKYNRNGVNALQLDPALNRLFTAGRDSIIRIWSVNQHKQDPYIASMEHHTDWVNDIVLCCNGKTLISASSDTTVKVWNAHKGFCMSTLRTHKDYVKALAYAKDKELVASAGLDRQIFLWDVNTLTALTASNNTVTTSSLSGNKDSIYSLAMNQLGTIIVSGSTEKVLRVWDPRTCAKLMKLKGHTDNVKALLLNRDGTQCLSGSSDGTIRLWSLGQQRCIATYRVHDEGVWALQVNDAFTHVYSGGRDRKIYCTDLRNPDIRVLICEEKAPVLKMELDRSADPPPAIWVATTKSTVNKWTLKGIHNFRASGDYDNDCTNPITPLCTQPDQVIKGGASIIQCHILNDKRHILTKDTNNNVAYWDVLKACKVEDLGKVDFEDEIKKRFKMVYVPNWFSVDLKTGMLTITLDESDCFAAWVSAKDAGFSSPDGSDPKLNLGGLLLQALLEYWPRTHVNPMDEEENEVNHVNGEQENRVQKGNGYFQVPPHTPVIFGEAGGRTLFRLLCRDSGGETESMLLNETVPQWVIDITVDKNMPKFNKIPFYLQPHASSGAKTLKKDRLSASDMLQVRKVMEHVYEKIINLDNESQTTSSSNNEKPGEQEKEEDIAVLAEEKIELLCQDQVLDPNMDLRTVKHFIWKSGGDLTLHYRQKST

IC50 [1] [µM]	IC50 [2] [µM]	IC50 [3] [µM]	IC50 [4] [µM]	Structure (SMILES)
0.1 to 10	≥ 10	0.25 to 10	–	CC(C)c1ccccc1-c1nc(O)c2c(n1)n(Cc1ccc(-c3nc(C(F)(F)F)cn3C)cc1)c(=N)n2C [Example A-32, 8-imino-2-(2-isopropylphenyl)-7-methyl-9-(4-(1-methyl-4-(trifluoromethyl)-1H-imidazol-2-yl)benzyl)-8,9-dihydro-7H-purin-6-ol]
< 0.03	–	–	< 0.1	CC(C)c1ccccc1-c1ncc2c(n1)n(Cc1ccc(-c3nc(C(F)(F)F)cn3C)c(F)c1)c(=N)n2C [Example A-33, 9-(3-fluoro-4-(1-methyl-4-(trifluoromethyl)-1H-imidazol-2-yl)benzyl)-2-(2-isopropylphenyl)-7-methyl-7,9-dihydro-8H-purin-8-imine]
0.1 to 10	≥ 10	0.25 to 10	–	CNC(=O)c1nc(-c2ccccc2C(C)C)nc2c1n(C)c(=N)n2Cc1ccc(-c2nc(C(F)(F)F)cn2C)cc1 [Example A-39, 8-imino-2-(2-isopropylphenyl)-N, 7-dimethyl-9-(4-(1-methyl-4-(trifluoromethyl)-1H-imidazol-2-yl)benzyl)-8,9-dihydro-7H-purine-6-carboxamide]
0.1 to 10	≥ 10	0.25 to 10	–	CC(C)c1ccccc1-c1nc(C(=O)N(C)C)c2c(n1)n(Cc1ccc(-c3nc(C(F)(F)F)cn3C)cc1)c(=N)n2C [Example A-40, 8-imino-2-(2-isopropylphenyl)-N,N, 7-trimethyl-9-(4-(1-methyl-4-(trifluoromethyl)-1H-imidazol-2-yl)benzyl)-8,9-dihydro-7H-purine-6-carboxamide]
0.03 to 0.1	–	–	0.25 to 10	CC(C)c1ccccc1-c1ncc2c(n1)n(Cc1cc(F)c(-c3nc(C(F)(F)F)cn3C)c(F)c1)c(=N)n2C [Example A-43, 9-(3,5-difluoro-4-(1-methyl-4-(trifluoromethyl)-1H-imidazol-2-yl)benzyl)-2-(2-isopropylphenyl)-7-methyl-7,9-dihydro-8H-purin-8-imine]
0.03 to 0.1	–	0.25 to 10	0.1 to 0.25	Cn1cc(C(F)(F)F)nc1-c1ccc(Cn2c(=N)n(C)c3cnc(-c4c(C(F)(F)F)cnn4C)nc32)cc1 [Example T-010]
0.1 to 10	≥ 10	0.25 to 10	–	Cc1cnn(C)c1-c1ncc2c(n1)n(Cc1ccc(-c3nc(C(F)(F)F)cn3C)cc1)c(=N)n2C [Example T-012]
0.1 to 10	≥ 10	0.25 to 10	–	Cn1cc(C(F)(F)F)nc1-c1ccc(Cn2c(=N)n(C)c3cnc(-c4c(C5CC5)cnn4C)nc32)cc1 [Example T-017]
0.1 to 10	≥ 10	0.25 to 10	–	Cn1cc(C(F)(F)F)nc1-c1ccc(Cn2c(=N)n(C)c3cnc(-c4c(C#N)cnn4C)nc32)cc1 [Example T-022]
0.1 to 10	≥ 10	0.25 to 10	–	Cn1cc(C(F)(F)F)nc1-c1ccc(Cn2c(=N)n(C)c3cnc(-c4cccnc4C(F)(F)F)nc32)cc1 [Example T-025]
0.1 to 10	≥ 10	0.25 to 10	–	COc1nccc(C)c1-c1ncc2c(n1)n(Cc1ccc(-c3nc(C(F)(F)F)cn3C)cc1)c(=N)n2C [Example T-028]
0.1 to 10	≥ 10	0.25 to 10	–	Cn1cc(C(F)(F)F)nc1-c1ccc(Cn2c(=N)n(C)c3cnc(-c4cccnc4C4(C#N)CC4)nc32)cc1 [Example T-041]
0.1 to 10	≥ 10	0.25 to 10	–	Cn1cc(C(F)(F)F)nc1-c1ccc(Cn2c(=N)n(C)c3cnc(-c4cccnc4CC(F)(F)F)nc32)cc1 [Example T-042]
< 0.03	–	< 0.1	0.1 to 0.25	Cn1cc(C(F)(F)F)nc1-c1ccc(Cn2c(=N)n(C)c3cnc(-c4ccccc4C(F)(F)F)nc32)cc1 [Example T-045]
0.1 to 10	≥ 10	≥ 10	–	Cn1cc(C(F)(F)F)nc1-c1ccc(Cn2c(=N)n(C)c3cnc(-c4cccnc4C#N)nc32)cc1 [Example T-050]
0.1 to 10	≥ 10	≥ 10	–	COc1ncncc1-c1ncc2c(n1)n(Cc1ccc(-c3nc(C(F)(F)F)cn3C)cc1)c(=N)n2C [Example T-058]
0.1 to 10	≥ 10	0.25 to 10	–	Cc1noc(C)c1-c1ncc2c(n1)n(Cc1ccc(-c3nc(C(F)(F)F)cn3C)cc1)c(=N)n2C [Example T-062]
0.1 to 10	0.25 to 10	0.25 to 10	–	Cn1cc(C(F)(F)F)nc1-c1ccc(Cn2c(=N)n(C)c3cnc(-c4c(C(F)(F)F)nn(C)c4C#N)nc32)cc1 [Example T-072]
0.1 to 10	0.25 to 10	0.25 to 10	–	CNc1ncccc1-c1ncc2c(n1)n(Cc1ccc(-c3nc(C(F)(F)F)cn3C)cc1)c(=N)n2C [Example T-075]
0.1 to 10	≥ 10	0.25 to 10	–	CC(C)c1cnccc1-c1ncc2c(n1)n(Cc1ccc(-c3nc(C(F)(F)F)cn3C)cc1)c(=N)n2C [Example T-096]

Second part, the compound before the results:

Structure (SMILES)	IC50 [1] [µM]	IC50 [2] [µM]	IC50 [3] [µM]	IC50 [4] [µM]
CC#Cc1nc(-c2ccccc2Cl)nc2c1n(C)c(=N)n2Cc1ccc(-c2nc(Cl)cn2C)cc1 [Example A-45, 9-(4-(4-chloro-1-methyl-1H-imidazol-2-yl)benzyl)-2-(2-chlorophenyl)-7-methyl-6-(prop-1-yn-1-yl)-7,9-dihydro-8H-purin-8-imine]	0.1 to 10	0.25 to 10	0.25 to 10	–
CC(C)c1ccccc1-c1ncc2c(n1)n(CC1CCC(c3nc(C(F)(F)F)cn3C)CC1)c(=N)n2C (stereo not shown) [Example T-006]	0.1 to 10	0.25 to 10	0.25 to 10	–
COc1ncnc(C2CC2)c1-c1ncc2c(n1)n(Cc1ccc(-c3nc(C(F)(F)F)cn3C)s1)c(=N)n2C [Example T-007]	0.1 to 10	≥ 10	0.25 to 10	–
COc1ncnc(C2CC2)c1-c1ncc2c(n1)n(Cc1cc(-c3nc(C(F)(F)F)cn3C)cs1)c(=N)n2C [Example T-014]	0.1 to 10	≥ 10	0.25 to 10	–
COc1ncnc(C2CC2)c1-c1ncc2c(n1)n(Cc1cc(C)c(-c3nc(C(F)(F)F)cn3C)cc1C)c(=N)n2C [Example T-026]	0.1 to 10	≥ 10	0.25 to 10	–
COc1ncccc1-c1ncc2c(n1)n(C1(c3ccc(-c4nc(C(F)(F)F)cn4C)cc3)CC1)c(=N)n2C [Example T-043]	0.1 to 10	≥ 10	0.25 to 10	–
Cn1cc(C(F)(F)F)nc1-c1cc(F)c(Cn2c(=N)n(C)c3cnc(-c4ccccc4C(F)(F)F)nc32)c(F)c1 [Example T-046]	0.1 to 10	≥ 10	0.25 to 10	–
COn1cc(C(F)(F)F)nc1-c1ccc(Cn2c(=N)n(C)c3cnc(-c4ccccc4C(F)(F)F)nc32)nc1 [Example T-048]	0.1 to 10	≥ 10	0.25 to 10	–
COc1cc(C(F)(F)F)nn1-c1ccc(Cn2c(=N)n(C)c3cnc(-c4ccccc4C(F)(F)F)nc32)cn1 [Example T-055]	0.1 to 10	≥ 10	0.25 to 10	–
COc1ccn(-c2ccc(Cn3c(=N)n(C)c4cnc(-c5ccccc5C(C)C)nc43)cc2C)n1 [Example T-056]	0.1 to 10	0.25 to 10	0.25 to 10	–
Cn1c(=N)n(Cc2ccc(-c3nc(C(F)(F)F)c[nH]3)c(F)c2)c2nc(-c3ccccc3C(F)(F)F)ncc21 [Example T-068]	0.1 to 10	0.25 to 10	0.25 to 10	–
Cn1cc(C(F)(F)F)nc1-c1ccc(Cn2c(=N)n(C)c3cnc(-c4ccccc4C(F)(F)F)nc32)cn1 [Example T-073]	0.1 to 10	≥ 10	0.25 to 10	–
COc1ccn(-c2ccc(Cn3c(=N)n(C)c4cnc(-c5ccccc5C(C)C)nc43)cc2F)n1 [Example T-074]	0.1 to 10	0.25 to 10	0.25 to 10	–
Cn1c(=N)n(Cc2ccc(-c3nc(C(F)(F)F)cn3C3COC3)cc2)c2nc(-c3ccccc3C(F)(F)F)ncc21 [Example T-077]	0.1 to 10	≥ 10	0.25 to 10	–
Cc1cc(-c2nc(C(F)(F)F)cn2C)cc(C)c1Cn1c(=N)n(C)c2cnc(-c3ccccc3C(F)(F)F)nc21 [Example T-080]	0.1 to 10	0.25 to 10	0.25 to 10	–
Cn1c(=N)n(Cc2ccc(-c3nc(C(F)(F)F)cn3CCO)cc2)c2nc(-c3ccccc3C(F)(F)F)ncc21 [Example T-083]	0.1 to 10	≥ 10	0.25 to 10	–
COc1ncnc(C2CC2)c1-c1ncc2c(n1)n(C1(c3ccc(-c4nc(C(F)(F)F)cn4C)cc3)CC1)c(=N)n2C [Example T-086]	–	≥ 10	0.1 to 0.25	0.1 to 0.25
COc1ncnc(C2CC2)c1-c1ncc2c(n1)n(C[C@H]1CC[C@H](c3nc(C(F)(F)F)cn3C)CC1)c(=N)n2C [Example T-089]	0.1 to 10	≥ 10	0.25 to 10	–
Cn1cc(C(F)(F)F)nc1-c1ccc(Cn2c(=N)n(CC(F)(F)F)c3cnc(-c4c(C(F)(F)F)cnn4C)nc32)cc1 [Example T-101]	< 0.03	0.25 to 10	0.1 to 0.25	–
COc1ncnc(C2CC2)c1-c1ncc2c(n1)n(Cc1ccc(-c3nc(C(F)(F)F)cn3C)cc1O)c(=N)n2C [Example T-133, 2-[[2-(4-cyclopropyl-6-methoxy-pyrimidin-5-yl)-8-imino-7-methyl-purin-9-yl]methyl]-5-[1-methyl-4-(trifluoromethyl)imidazol-2-yl]phenol]	0.03 to 0.1	≥ 10	< 0.1	–
